Test results: patent US12391721B2, “Crystal forms of beta-nicotinamide mononucleotide” (Metro International Biotech, LLC, priority 2015, dated 2025)

Legend:
Assay type in all cases: physicochemical
[1] = Three month stability and forced degradation study: HPLC purity of stored solids; conditions: for Known Impurity* (%) (nicotinamide, RRT = 1.73 min) / Purity (%): HPLC
Method: Purity analysis was performed on an Agilent HP1100 series system equipped with a diode array detector and using ChemStation software vB.04.03 using the method detailed below in Table 1.
(§1) […] The samples were prepared in duplicate with an offset of 2 weeks. Each replicate was stored in a different container.
(§2) Replicate 1 was charged in an open HPLC vial that was placed in a sealed scintillation vial containing a saturated solution of the relevant inorganic salt (Table 2). These samples were analysed by HPLC, 1H NMR, XRPD and Polarized Light Microscopy (PLM) at 4, 8, and 12 week time points.
(§3) Replicate 2 was stored in sealed box with a recipient containing a saturated solution of the relevant inorganic salt (Table 2). These samples were analysed by HPLC at 2, 6, 10 and 12 week time points. Samples at 25° C./0% RH were stored in a sealed box containing a desiccant agent (P2O5).

[2] = Dynamic vapor sorption (DVS) of amorphous NMN; conditions: FIG. 7
Description: When a sample of amorphous NMN is exposed to atmospheric humidity, the sample goes through phases. […] The amorphous sample is hygroscopic until it deliquesces and starts crystallizing.

[3] = Three month stability and forced degradation study: solid form by XRPD after storage; conditions: for XRPD: Replicate 1
Method: X-Ray Powder Diffraction patterns were collected on a Bruker D8 diffractometer using Cu Kα radiation (40 kV, 40 mA), θ-2θ goniometer, and divergence of V4 and receiving slits, a Ge monochromator and a Lynxeye detector. The instrument is performance checked using a certified Corundum standard (NIST 1976). The software used for data collection was Diffrac Plus XRD Commander v2.6.1 and the data were analysed and presented using Diffrac Plus EVA v15.0.0.0.
Samples were run under ambient conditions as flat plate specimens using powder as received. The sample was gently packed into a cavity cut into polished, zero-background (510) silicon wafer. The sample was rotated in its own plane during analysis. The details of the data collection are: • Angular range: 2 to 42° 2θ • Step size: 0.05° 2θ • Collection time: 0.5 s/step HPLC
as §1, §2

[4] = Three month stability and forced degradation study: visual observations of stored solids
Method: as §1, §2, §3

[5] = Three month stability and forced degradation study: particle morphology by polarised light microscopy (PLM); conditions: Replicate 1
Method: Samples were studied on a Leica LM/DM polarised light microscope with a digital video camera for image capture. A small amount of each sample was placed on a glass slide, 15 mounted in immersion oil and covered with a glass slip, the individual particles being separated as well as possible. The sample was viewed with appropriate magnification and partially polarised light, coupled to a λ false-color filter.
as §1, §2

[6] = solid stored 25° C., 0% RH, 4 weeks, Replicate 1
[7] = solid stored 25° C., 0% RH, 8 weeks, Replicate 1
[8] = solid stored 25° C., 0% RH, 12 weeks, Replicate 1
[9] = solid stored 25° C., 0% RH, 12 weeks, Replicate 1, listed as Amorphous material
[10] = solid stored 25° C., 60% RH, 2 weeks, Replicate 2
[11] = solid stored 25° C., 60% RH, 4 weeks, Replicate 1
[12] = solid stored 25° C., 60% RH, 6 weeks, Replicate 2
[13] = solid stored 25° C., 60% RH, 8 weeks, Replicate 1
[14] = solid stored 25° C., 60% RH, 10 weeks, Replicate 2
[15] = solid stored 25° C., 60% RH, 12 weeks, Replicate 1
[16] = solid stored 25° C., 60% RH, 12 weeks, Replicate 2
[17] = solid stored 25° C., 97% RH, 2 weeks, Replicate 2
[18] = solid stored 25° C., 97% RH, 4 weeks, Replicate 1
[19] = solid stored 25° C., 97% RH, 6 weeks, Replicate 2
[20] = solid stored 25° C., 97% RH, 10 weeks, Replicate 2
[21] = solid stored 25° C., 97% RH, 12 weeks, Replicate 2
[22] = solid stored 40° C., 75% RH, 2 weeks, Replicate 2
[23] = solid stored 40° C., 75% RH, 4 weeks, Replicate 1
[24] = solid stored 40° C., 75% RH, 6 weeks, Replicate 2
[25] = solid stored 40° C., 75% RH, 8 weeks, Replicate 1
[26] = solid stored 40° C., 75% RH, 10 weeks, Replicate 2
[27] = solid stored 40° C., 75% RH, 12 weeks, Replicate 2
[28] = solid stored 40° C., 75% RH, 12 weeks, Replicate 2, listed as amorphous material
[29] = t = 0, baseline of the stability study, listed as J07086
[30] = solid stored 25° C., 0% RH, 4 weeks
[31] = solid stored 25° C., 0% RH, 8 weeks
[32] = solid stored 25° C., 0% RH, 12 weeks
[33] = solid stored 25° C., 60% RH, 4 weeks
[34] = solid stored 25° C., 60% RH, 12 weeks
[35] = solid stored 25° C., 97% RH, 4 weeks
[36] = solid stored 40° C., 75% RH, 4 weeks

NC(=O)c1ccc[n+]([C@@H]2O[C@H](COP(=O)([O-])O)[C@@H](O)[C@H]2O)c1 [Form J07087, β-nicotinamide mononucleotide, reference compound]
Known Impurity* (%) (nicotinamide, RRT = 1.73 min) [1, 6]: 1.81% | Purity (%) [1, 6]: 96.9% | Known Impurity* (%) (nicotinamide, RRT = 1.73 min) [1, 7]: 2.44% | Purity (%) [1, 7]: 95.8% | Known Impurity* (%) (nicotinamide, RRT = 1.73 min) [1, 8]: 2.81% | Purity (%) [1, 8]: 95.0% | Known Impurity* (%) (nicotinamide, RRT = 1.73 min) [1, 9]: 2.8% | Purity (%) [1, 9]: 95.5% | Known Impurity* (%) (nicotinamide, RRT = 1.73 min) [1, 10]: 2.14% | Purity (%) [1, 10]: 97.4% | Known Impurity* (%) (nicotinamide, RRT = 1.73 min) [1, 11]: 2.13% | Purity (%) [1, 11]: 96.9% | Known Impurity* (%) (nicotinamide, RRT = 1.73 min) [1, 12]: 2.06% | Purity (%) [1, 12]: 97.4% | Known Impurity* (%) (nicotinamide, RRT = 1.73 min) [1, 13]: 3.46% | Purity (%) [1, 13]: 95.2% | Known Impurity* (%) (nicotinamide, RRT = 1.73 min) [1, 14]: 2.92% | Purity (%) [1, 14]: 96.0% | Known Impurity* (%) (nicotinamide, RRT = 1.73 min) [1, 15]: 3.46% | Purity (%) [1, 15]: 95.7% | Known Impurity* (%) (nicotinamide, RRT = 1.73 min) [1, 16]: 2.32% | Purity (%) [1, 16]: 96.2% | Known Impurity* (%) (nicotinamide, RRT = 1.73 min) [1, 17]: 1.79% | Purity (%) [1, 17]: 97.8% | Known Impurity* (%) (nicotinamide, RRT = 1.73 min) [1, 18]: 2.44% | Purity (%) [1, 18]: 97.1% | Known Impurity* (%) (nicotinamide, RRT = 1.73 min) [1, 19]: 3.01% | Purity (%) [1, 19]: 96.5% | Known Impurity* (%) (nicotinamide, RRT = 1.73 min) [1, 20]: 4.39% | Purity (%) [1, 20]: 94.9% | Known Impurity* (%) (nicotinamide, RRT = 1.73 min) [1, 21]: 7.02% | Purity (%) [1, 21]: 91.5% | Known Impurity* (%) (nicotinamide, RRT = 1.73 min) [1, 22]: 4.61% | Purity (%) [1, 22]: 94.6% | Known Impurity* (%) (nicotinamide, RRT = 1.73 min) [1, 23]: 6.70% | Purity (%) [1, 23]: 91.3% | Known Impurity* (%) (nicotinamide, RRT = 1.73 min) [1, 24]: 8.22% | Purity (%) [1, 24]: 88.0% | Known Impurity* (%) (nicotinamide, RRT = 1.73 min) [1, 25]: 14.23% | Purity (%) [1, 25]: 76.9% | Known Impurity* (%) (nicotinamide, RRT = 1.73 min) [1, 26]: 16.18% | Purity (%) [1, 26]: 75.9% | Known Impurity* (%) (nicotinamide, RRT = 1.73 min) [1, 27]: 20.60% | Purity (%) [1, 27]: ~67.5^$ % | Known Impurity* (%) (nicotinamide, RRT = 1.73 min) [1, 28]: 20.6% | Purity (%) [1, 28]: 67.5% | HPLC purity profile, Area % of main peak (RRT 1.00) [1, 29]: 98.56 Area % | HPLC purity profile, Area % of peak at RRT 1.76 / 1.74 (nicotinamide) [1, 29]: 0.87 Area % | Purity ([1]; time 0, listed as Amorphous material): 98.2% | reversible mass pick up (DVS) ([2]; once crystallised, double cycle): up to 9 % w/w | behaviour on exposure to atmospheric humidity (DVS change in mass plot) ([2]; until it deliquesces and starts crystallizing): hygroscopic | solid form and particle morphology after storage ([3]; 12 weeks at 25° C., 0% RH): remained unchanged | XRPD [3, 30]: Unchanged | XRPD [3, 31]: Unchanged | XRPD [3, 32]: Unchanged | XRPD [3, 33]: Form 1 | XRPD ([3]; solid stored 25° C., 60% RH, 8 weeks): Form 1 | XRPD [3, 34]: Form 1 | XRPD [3, 35]: Form 1 | XRPD [3, 36]: Form 1 | XRPD ([3]; solid stored 40° C., 75% RH, 8 weeks): Form 1 | XRPD ([3]; solid stored 40° C., 75% RH, 12 weeks): Form 1 | solid form on storage under humidity ([3]; stored under 25% or greater relative humidity, gives Form 1 with acicular morphology): crystallized | Observations [4, 6]: white solid | Observations [4, 7]: white solid | Observations [4, 8]: white solid | Observations [4, 10]: light yellow solid, | Observations [4, 11]: brown solid | Observations [4, 12]: light brown, | Observations [4, 13]: brown solid, | Observations [4, 14]: light brown, | Observations [4, 15]: brown solid, | Observations [4, 16]: light brown, | Observations [4, 17]: white compacted | Observations [4, 18]: white solid, | Observations [4, 19]: white solid, | Observations ([4]; solid stored 25° C., 97% RH, 8 weeks, Replicate 1): partially | Observations [4, 20]: white solid, | Observations ([4]; solid stored 25° C., 97% RH, 12 weeks, Replicate 1): deliquesced. | Observations [4, 21]: white solid, | Observations [4, 22]: brown compacted | Observations [4, 23]: brown | Observations [4, 24]: dark brown solid | Observations [4, 25]: brown | Observations [4, 26]: black solid | Observations ([4]; solid stored 40° C., 75% RH, 12 weeks, Replicate 1): black solid, | Observations [4, 27]: black solid, | PLM [5, 30]: Unchanged | PLM [5, 31]: Unchanged | PLM [5, 32]: Unchanged | PLM [5, 33]: acicular | PLM [5, 34]: acicular | PLM [5, 35]: acicular | PLM [5, 36]: acicular
